Data as given in US9980943B2, “Methods of treating muscular dystrophy” (BOARD OF REGENTS OF THE NEVADA SYSTEM OF HIGHER EDUCATION, …, priority 2013, dated 2018).

Assays:
Assay type in all cases: cell-based, mouse
[1] = test system: α7 integrin (LacZ reporter in α7βgal+/− myoblasts); assay: Myoblast α7+/LacZ integrin FDG assay (Burkin assay in myoblasts, 96-well); conditions: α7+/LacZ myoblasts, 96-well
[2] = test system: α7 integrin (LacZ reporter in α7+/LacZ myotubes); assay: Myotube α7 integrin FDG assay (Burkin assay in myotubes, 96-well); conditions: myotubes
[3] = test system: β-galactosidase in CMV-LacZ C2C12 myotubes; assay: CMV-LacZ secondary screen in C2C12 myotubes (β-Gal stabilizing assay); conditions: for CMV-LACZ in Myotubes (β-galactosidase activity relative to DMSO): CMV-LacZ C2C12 myotubes, 96-well format
Source text: In order to determine compounds that acted to stabilize β-gal in myogenic cells, a CMV-LacZ C2C12 cell line was used in a secondary screen. The EGFP gene from the pEGFP (Clontech) vector was replaced by LACZ PCR product with digests of the vector/PCR product performed using EcoRI (NEB) and NotI (NEB) and ligated using T4 DNA Ligase (NEB) following standard procedures to produce the CMV-LACZ vector. The LACZ gene was generated by PCR from the pBK-RSV (Stratagene) vector using primers LACZ EcoRI F- and LACZ NotI R-. The CMV-LACZ vector was then digested with AfIII (NEB) to linearize the construct, which was then transfected in C2C12 myoblasts using Lipofectamine 2000 (Invitrogen) following the manufacturer's instructions. […] Clonal lines were selected and screened for βgal levels using the myoblast FDG assay.
The assays were used the original 96-well format and new dose-response curves for myoblasts (N=3-6 replicates for each data point), myotubes (N=3-6 replicates for data point), and CMV-LacZ secondary assay (N=2 replicates for each data point) using concentrations of 0.5 μM, 1 μM, 5 μM, 10 μM, 20 μM, and 40 μM (Tables 9-16).

[4] = 5 uM, C2C12 CMV-LacZ myotubes, fold relative to DMSO
[5] = 10 uM, C2C12 CMV-LacZ myotubes, fold relative to DMSO
[6] = 20 uM, C2C12 CMV-LacZ myotubes, fold relative to DMSO
[7] = 40 uM, C2C12 CMV-LacZ myotubes, fold relative to DMSO

Compound | Burkin Assay in Myoblasts, value relative to DMSO ([1]; 0.5 uM) | Burkin Assay in Myoblasts, value relative to DMSO ([1]; 1 uM) | Burkin Assay in Myoblasts, value relative to DMSO ([1]; 5 uM) | Burkin Assay in Myoblasts, value relative to DMSO ([1]; 10 uM) | Burkin Assay in Myoblasts, value relative to DMSO ([1]; 20 uM) | Burkin Assay in Myoblasts, value relative to DMSO ([1]; 40 uM) | Burkin Assay in Myotubes (signal relative to DMSO) ([2]; 0.5 uM) | Burkin Assay in Myotubes (signal relative to DMSO) ([2]; 1 uM) | Burkin Assay in Myotubes (signal relative to DMSO) ([2]; 5 uM) | Burkin Assay in Myotubes (signal relative to DMSO) ([2]; 10 uM) | Burkin Assay in Myotubes (signal relative to DMSO) ([2]; 20 uM) | Burkin Assay in Myotubes (signal relative to DMSO) ([2]; 40 uM) | CMV-LACZ in Myotubes (β-galactosidase activity relative to DMSO) ([3]; 5 uM) | CMV-LACZ in Myotubes (β-galactosidase activity relative to DMSO) ([3]; 10 uM) | CMV-LACZ in Myotubes (β-galactosidase activity relative to DMSO) ([3]; 20 uM) | CMV-LACZ in Myotubes (β-galactosidase activity relative to DMSO) ([3]; 40 uM) | CMV-LACZ in Myotubes, signal relative to DMSO [3, 4] | CMV-LACZ in Myotubes, signal relative to DMSO [3, 5] | CMV-LACZ in Myotubes, signal relative to DMSO [3, 6] | CMV-LACZ in Myotubes, signal relative to DMSO [3, 7] | also measured
O=C(NCc1ccccc1)C(c1ccc(O)cc1)N(C(=O)Cn1nnc(-c2cccs2)n1)c1ccc2c(c1)OCCO2 (stereo not shown) [MLS000123454-01] | 0.8934 | 0.8234 | 0.7862 | 0.8621 | 1.519 | 1.013 | 1.067 | 0.8963 | 1.047 | 1.083 | 0.6841 | 0.8852 | 0.9353 | 0.9323 | 0.8796 | 1.055 | – | – | – | – | –
Cc1cccc(OCc2nc(C#N)c(N3CCCC3)o2)c1 [MLS000332693-01] | 1.04 | 0.9937 | 1.068 | 1.095 | 0.895 | 0.9225 | 1.0441 | 0.9631 | 1.092 | 0.9798 | 0.9709 | 0.9252 | 1.244 | 0.9794 | 0.8804 | 0.9304 | – | – | – | – | –
Cc1ccccc1OCC(=O)Nc1nnc(-c2ccco2)s1 [MLS000333610-01] | – | – | – | – | – | – | – | – | – | – | – | – | – | – | – | – | 0.832 | 0.7867 | 0.9429 | 0.9948 | Burkin Assay in Myoblasts, signal relative to DMSO ([1]; 0.5 uM): 0.8664; Burkin Assay in Myoblasts, signal relative to DMSO ([1]; 1 uM): 0.9253; Burkin Assay in Myoblasts, signal relative to DMSO ([1]; 5 uM): 1.048; Burkin Assay in Myoblasts, signal relative to DMSO ([1]; 10 uM): 0.9188; Burkin Assay in Myoblasts, signal relative to DMSO ([1]; 20 uM): 0.7975; Burkin Assay in Myoblasts, signal relative to DMSO ([1]; 40 uM): 0.7794; Burkin Assay in Myotubes, α7 integrin LacZ reporter signal relative to DMSO ([2]; 0.5 uM): 0.986; Burkin Assay in Myotubes, α7 integrin LacZ reporter signal relative to DMSO ([2]; 1 uM): 1.039; Burkin Assay in Myotubes, α7 integrin LacZ reporter signal relative to DMSO ([2]; 5 uM): 1.003; Burkin Assay in Myotubes, α7 integrin LacZ reporter signal relative to DMSO ([2]; 10 uM): 0.9932; Burkin Assay in Myotubes, α7 integrin LacZ reporter signal relative to DMSO ([2]; 20 uM): 0.8742; Burkin Assay in Myotubes, α7 integrin LacZ reporter signal relative to DMSO ([2]; 40 uM): 0.9096
COc1ccccc1NC(=O)CCCc1c[nH]c2ccccc12 [MLS000334464-01] | – | – | – | – | – | – | – | – | – | – | – | – | – | – | – | – | – | – | – | – | fold induction at 0.5 µM ([1]; Mus musculus, Myoblast, 48 h, 0.5 uM, read-out: Burkin Assay in Myoblasts, value relative to DMSO): 1.13; fold induction at 1 µM ([1]; Mus musculus, Myoblast, 48 h, 1 uM, read-out: Burkin Assay in Myoblasts, value relative to DMSO): 1.11; fold induction at 5 µM ([1]; Mus musculus, Myoblast, 48 h, 5 uM, read-out: Burkin Assay in Myoblasts, value relative to DMSO): 1.18; fold induction at 10 µM ([1]; Mus musculus, Myoblast, 48 h, 10 uM, read-out: Burkin Assay in Myoblasts, value relative to DMSO): 1.14; fold induction at 20 µM ([1]; Mus musculus, Myoblast, 48 h, 20 uM, read-out: Burkin Assay in Myoblasts, value relative to DMSO): 0.896; fold induction at 40 µM ([1]; Mus musculus, Myoblast, 48 h, 40 uM, read-out: Burkin Assay in Myoblasts, value relative to DMSO): 1.08; fold induction at 0.5 µM ([2]; Mus musculus, Myotube, 0.5 uM, read-out: Burkin Assay in Myotubes (signal relative to DMSO)): 0.986; fold induction at 1 µM ([2]; Mus musculus, Myotube, 1 uM, read-out: Burkin Assay in Myotubes (signal relative to DMSO)): 0.88; fold induction at 5 µM ([2]; Mus musculus, Myotube, 5 uM, read-out: Burkin Assay in Myotubes (signal relative to DMSO)): 1; fold induction at 10 µM ([2]; Mus musculus, Myotube, 10 uM, read-out: Burkin Assay in Myotubes (signal relative to DMSO)): 0.992; fold induction at 20 µM ([2]; Mus musculus, Myotube, 20 uM, read-out: Burkin Assay in Myotubes (signal relative to DMSO)): 1.13; fold induction at 40 µM ([2]; Mus musculus, Myotube, 40 uM, read-out: Burkin Assay in Myotubes (signal relative to DMSO)): 0.666; fold induction at 5 µM ([3]; Mus musculus, C2C12, read-out: CMV-LACZ in Myotubes, signal relative to DMSO, 5 uM, C2C12 CMV-LacZ myotubes, fold relative to DMSO): 1.3; fold induction at 10 µM ([3]; Mus musculus, C2C12, read-out: CMV-LACZ in Myotubes, signal relative to DMSO, 10 uM, C2C12 CMV-LacZ myotubes, fold relative to DMSO): 1.08; fold induction at 20 µM ([3]; Mus musculus, C2C12, read-out: CMV-LACZ in Myotubes, signal relative to DMSO, 20 uM, C2C12 CMV-LacZ myotubes, fold relative to DMSO): 0.988; fold induction at 40 µM ([3]; Mus musculus, C2C12, read-out: CMV-LACZ in Myotubes, signal relative to DMSO, 40 uM, C2C12 CMV-LacZ myotubes, fold relative to DMSO): 0.964
Cc1ccc(-c2csc(Nc3ccc(C(=O)O)cc3)[n+]2Cc2ccccc2)cc1 [MLS000374261-01] | 0.7676 | 0.7758 | 0.7248 | 0.7138 | 0.8376 | 0.8321 | 0.8144 | 0.8386 | 1.131 | 0.9288 | 0.423 | 0.449 | 0.8246 | 0.8319 | 0.448 | 0.5036 | – | – | – | – | –
Cc1ccc(-c2nc(C)sc2CC(=O)OCC(=O)Nc2c(F)cccc2F)cc1 [MLS000388722-01] | 0.93 | 1.1187 | 1.1052 | 1.1175 | 0.9101 | 0.9407 | 0.9225 | 0.9369 | 1.032 | 1.042 | 0.8001 | 0.9404 | – | – | – | – | 0.9569 | 1.067 | 1.085 | 0.8668 | –
CC(OC(=O)c1cc(-c2cccnc2)nc2ccccc12)C(=O)Nc1ccc2ccccc2c1 (stereo not shown) [MLS000389484-01] | – | – | – | – | – | – | – | – | – | – | – | – | – | – | – | – | 0.8524 | 0.8387 | 1.116 | 2.781 | Burkin Assay in Myoblasts, signal relative to DMSO ([1]; 0.5 uM): 0.7848; Burkin Assay in Myoblasts, signal relative to DMSO ([1]; 1 uM): 0.7672; Burkin Assay in Myoblasts, signal relative to DMSO ([1]; 5 uM): 0.8524; Burkin Assay in Myoblasts, signal relative to DMSO ([1]; 10 uM): 0.8706; Burkin Assay in Myoblasts, signal relative to DMSO ([1]; 20 uM): 0.7331; Burkin Assay in Myoblasts, signal relative to DMSO ([1]; 40 uM): 0.6132; Burkin Assay in Myotubes, α7 integrin LacZ reporter signal relative to DMSO ([2]; 0.5 uM): 0.9292; Burkin Assay in Myotubes, α7 integrin LacZ reporter signal relative to DMSO ([2]; 1 uM): 0.7793; Burkin Assay in Myotubes, α7 integrin LacZ reporter signal relative to DMSO ([2]; 5 uM): 0.8638; Burkin Assay in Myotubes, α7 integrin LacZ reporter signal relative to DMSO ([2]; 10 uM): 0.6433; Burkin Assay in Myotubes, α7 integrin LacZ reporter signal relative to DMSO ([2]; 20 uM): 0.867; Burkin Assay in Myotubes, α7 integrin LacZ reporter signal relative to DMSO ([2]; 40 uM): 0.6946
